Laboratory results from patent US5385891A, “Polysulfate of β-cyclodextrin derivative and process for preparing the same” (Tanabe Seiyaku Co., Ltd., priority 1991, dated 1995).
Counter-ions that a name gives are not always drawn.

Tested on: HIV in MT-4 cells
Assay: HIV Proliferation Inhibitory Activity (MT-4 cells, 10% FCS)
Type: cell-based, HIV (a culture supernatant of TALL-1/LAV-1)
Conditions: Human immunodeficiency virus 1, MT4, 120 h, read-out: HIV proliferation inhibitory activity, 100% inhibition concentration
Experimental: It is known that when MT-4 cells which are sustaining infectious cell lines of human T-cell Leukemia virus I type (HTLV-I) are infected with HIV, HIV proliferates rapidly and the MT-4 cells are killed in 5 to 6 days due to the cellular damage. Therefore, HIV proliferation inhibitory activity of a sample can be evaluated by examining the number of viable cells of the MT-4 cells infected with HIV.
MT-4 cells were infected with HIV (a culture supernatant of TALL-1/LAV-1) at 37° C. for one hour so that TCID50 (median tissue culture infectious dose)/cell might be 0.001, followed by washing with the medium. The infected MT-4 cells were then suspended at a concentration of 1×10^5 cell/ml in RPMI-1640 media (containing 10% of FCS (fetal calf serum)) containing samples of various concentrations, respectively. Each of the thus obtained cell suspension was introduced in a flat bottom culture plate in an amount of 200 μl/well and was incubated at 37° C. in the presence of 5% carbon dioxide for 5 days. After incubation, the number of viable cells in the cell suspension was counted by the Tripan-Blue Staining Method. The HIV proliferation inhibitory activity of a sample was evaluated in terms of the concentration of the sample which suppresses by 100% the infectiousness and the cell modification activity of HIV in MT-4 cells.

| SMILES | IC100 [µg/mL] |
| --- | --- |
| O=S(=O)(O)OC[C@H]1O[C@@H]2O[C@H]3[C@H](OS(=O)(=O)O)[C@@H](OCc4ccccc4)[C@@H](O[C@H]4[C@H](OS(=O)(=O)O)[C@@H](OCc5ccccc5)[C@@H](O[C@H]5[C@H](OS(=O)(=O)O)[C@@H](OCc6ccccc6)[C@@H](O[C@H]6[C@H](OS(=O)(=O)O)[C@@H](OCc7ccccc7)[C@@H](O[C@H]7[C@H](OS(=O)(=O)O)[C@@H](OCc8ccccc8)[C@@H](O[C@H]8[C@H](OS(=O)(=O)O)[C@@H](OCc9ccccc9)[C@@H](O[C@H]1[C@H](OS(=O)(=O)O)[C@H]2OCc1ccccc1)O[C@@H]8COS(=O)(=O)O)O[C@@H]7COS(=O)(=O)O)O[C@@H]6COS(=O)(=O)O)O[C@@H]5COS(=O)(=O)O)O[C@@H]4COS(=O)(=O)O)O[C@@H]3COS(=O)(=O)O [Example 1, sodium salt of heptakis(2-O-benzyl)-β-cyclodextrin polysulfate] | 0.98 |
| O=S(=O)(O)OC[C@H]1O[C@@H]2O[C@H]3[C@H](OS(=O)(=O)O)[C@@H](OCc4ccc(F)cc4)[C@@H](O[C@H]4[C@H](OS(=O)(=O)O)[C@@H](OCc5ccc(F)cc5)[C@@H](O[C@H]5[C@H](OS(=O)(=O)O)[C@@H](OCc6ccc(F)cc6)[C@@H](O[C@H]6[C@H](OS(=O)(=O)O)[C@@H](OCc7ccc(F)cc7)[C@@H](O[C@H]7[C@H](OS(=O)(=O)O)[C@@H](OCc8ccc(F)cc8)[C@@H](O[C@H]8[C@H](OS(=O)(=O)O)[C@@H](OCc9ccc(F)cc9)[C@@H](O[C@H]1[C@H](OS(=O)(=O)O)[C@H]2OCc1ccc(F)cc1)O[C@@H]8COS(=O)(=O)O)O[C@@H]7COS(=O)(=O)O)O[C@@H]6COS(=O)(=O)O)O[C@@H]5COS(=O)(=O)O)O[C@@H]4COS(=O)(=O)O)O[C@@H]3COS(=O)(=O)O [Example 6] | 3.9 |
